“Also recorded” adds a separate entry of the source. Where a name gives a salt, the structure may show the parent alone.
Assays:
lymphocytes = assay: Dose-ranging study in ulcerative colitis: lymphocyte counts; assay type: in vivo, human; conditions: 12 weeks
Source text: Exploratory endpoints included change from baseline in lymphocyte counts at Weeks 1, 2, 4, 8, and 12; proportion of patients achieving clinical remission at Week 12; and proportion of patients who achieve clinical response at Week 12.

[1] = test system: patients with ulcerative colitis; assay: Fecal calprotectin and C-reactive protein in ulcerative colitis study; assay type: in vivo, human
Experimental: The modified Mayo Clinic score (modified MCS) included endoscopic, rectal bleeding (RB), and stool frequency (SF) subscores. […] Endoscopic improvement was defined as a subscore ≤1. […] Comparisons between subgroups were assessed with a Wilcoxon rank-sum test (2-sided P values). Analysis of correlation between variables was conducted using the Spearman's rank coefficient (2-sided P values).

healthy adult subjects = assay: Multiple ascending dose study: safety and tolerability
Experimental: The following safety assessments were conducted: physical examinations with ophthalmoscopy, clinical laboratory tests (serum chemistry, coagulation, and urinalysis), vital signs, continuous telemetry (12 lead ECG), safety ECGs, pulmonary function testing (PFT), serum protein electrophoresis (SPEP) and serum immunoelectrophoresis (IEP), and adverse event reporting.

O=C(O)C[C@H]1CCc2c1[nH]c1ccc(OCc3ccc(C4CCCC4)c(C(F)(F)F)c3)cc21 [L-arginine salt of Compound 1]
reduction in lymphocytes relative to placebo (lymphocytes; 1 mg q.d.): 37%
reduction in lymphocytes relative to placebo (lymphocytes; 2 mg q.d., p<0.001): 57%
decrease in FC versus placebo across the study ([1]; 1 mg, did not reach statistical significance, P=0.08): 0.71
decrease in CRP compared with placebo across the study ([1]; 1 mg, mixed-model for repeat measures, P=0.02): 0.72
median FC at week 12, patients who did not achieve remission ([1]; 2 mg): 1129 µg/g
median FC at week 12, patients who achieved remission ([1]; 2 mg, P<0.001 vs no remission): 62.0 µg/g
decrease in FC compared with placebo across the study ([1]; 2 mg, mixed-model for repeat measures, P<0.001): 0.42
decrease in CRP compared with placebo across the study ([1]; 2 mg, mixed-model for repeat measures, P=0.01): 0.70
time at which decreases in FC and CRP levels versus placebo were first observed ([1]; 2 mg, sustained through week 12): 4 week
mildly abnormal reproducible (NCS) pulmonary function test findings (FEV1 below 80%, FVC) post-dose (healthy adult subjects; 1.35 mg dose): One subject
subjects who developed new 1″ degree atrioventricular block (healthy adult subjects; 2 mg group): 1 subject
subjects with mildly abnormal post-treatment liver function tests (ALT & AST >2× ULN) (healthy adult subjects; 2 mg group): 1 subject
subjects who developed new 1″ degree atrioventricular block (healthy adult subjects; 0.5, 3 mg group): 1 subject
subjects with mildly abnormal post-treatment liver function tests (ALT & AST >2× ULN) (healthy adult subjects; 0.5 escalating to 3 mg group): 1 subject
SAEs or deaths (healthy adult subjects; all dose levels): No SAEs or deaths occurred
ophthalmoscopy findings (healthy adult subjects; all dose levels): No clinically significant change from baseline
other safety issues (vital signs, ECGs, PFTs, ophthalmoscopy, clinical laboratory tests) (healthy adult subjects; all dose levels): no other clinically significant safety issues
second degree heart block (healthy adult subjects; all dose levels): No second degree heart block was found
subjects discontinued due to an adverse event (healthy adult subjects; all dose levels): No subjects were discontinued due to an adverse event
most common adverse events (healthy adult subjects; all dose levels, 21 days): contact dermatitis and leukopenia, followed by constipation, diarrhea, nausea, and abdominal pain
severity of adverse events (healthy adult subjects; all dose levels, 21 days): majority of adverse events were mild
tolerability (healthy adult subjects; all dose levels, 21 days): tolerated at all dose levels; also recorded: well tolerated at all doses tested
